Results reported in patent publication US9458137B2, “Substituted indol-5-ol derivatives and their therapeutical applications” (NantBioScience, Inc., priority 2012, dated 2016).

Assays:
[1] = system: human MIAPaCa-2 pancreatic carcinoma xenograft; assay: MIAPaCa-2 pancreatic carcinoma xenograft; assay type: in vivo, athymic nude-Faxn1 mice
Procedure: The objective of the third study was to evaluate antitumor activities of novel multiple-kinase inhibitor NTW-3475 in human MIAPaCa-2 pancreatic carcinoma xenograft in athymic nude-Faxn1 mice.
Four animals were randomly assigned to study groups. Each animal was weighed, and then injected subcutaneously in the left and right flank area with 0.1 ml of 5.0×10^7 MIAPaCa-2 cells per mL.
Each test or control animal was on a 5-day on, two-day off for two cycles treatment schedule with negative control vehicle, positive control Abraxane at 20 mg/kg or 25, 50 mg/kg of NTW-3475. Tumor growth was measured with a digital hand held caliper twice weekly (once tumor emerges) prior to the first dosing and then two to three times weekly until euthanized.
FIGS. 42-44 depict the results of various concentrations of NTW-3456 on a nude mouse/xenograft the MIAPaCa-2 model of pancreatic carcinoma.
FIGS. 45 and 46 depict the results of various concentrations of NTW-3456, with or without Abraxane on a MiaPaCa-2 model of pancreatic carcinoma.

[2] = system: human MV411 human acute myelogenous leukemia (AML) xenograft; assay type: in vivo, SCID mice; conditions: various concentrations; scid mouse, MV411 cells
Procedure: The objective of the first study was to evaluate antitumor activities of the novel multiple-kinase inhibitor NTW-3475 against human MV411 human acute myelogenous leukemia (AML) xenograft model in female SCID mice.
Four or six animals were randomly assigned to each study group. Each animal was injected subcutaneously in the left and right flank area with 0.1 ml of 1.0×10^8 MV411 cells per mL
(§1) Each test or control animal was placed on a 5-day on, two-day off for two cycles of vehicle negative control or 25, 50 mg/kg of NTW-3475. Tumor growth was measured with a digital hand held caliper twice weekly (once tumor emerges) prior to the first dosing and then two to three times weekly until euthanized. Animals were weighed prior to tumor cell injection, prior to dosing, two to three times weekly with tumor growth measurements, and prior to euthanasia.
FIGS. 27-32 depict the results of various concentrations of NTW-3456 on tumor growth in scid mouse/xenograft model of AML using MV411 cells. […] This invention is characterized as it is here was a correlation between the inhibition of the pFLT3 kinase and growth control.

[3] = system: AN3 human endometrial carcinoma carcinoma xenograft; assay: AN3 endometrial carcinoma xenograft; assay type: in vivo, nude mouse; conditions: various concentrations; AN3 nude mouse model
Source text: (§2) This example assesses NTW-3475's anti-tumor activity using a scid mouse xenograft models for leukemias and nude mouse xenograft models of endometrial, pancreatic and thyroid carcinomas. NTW-3475 combination therapy was also studied in murine xenografts.
FIGS. 39-41 depict the results of various concentrations of NTW-3456 on the AN3 nude mouse/xenograft model of endometrial carcinoma.

[4] = system: TT human Thyroid carcinoma xenograft; assay: TT thyroid carcinoma xenograft; assay type: in vivo, nude mouse; conditions: various concentrations; nude mouse, TT cell model
Source text: as §2
FIGS. 36-38 depict the results of various concentrations of NTW-3456 on a nude mouse/xenograft the TT cell model of thyroid carcinoma.

[5] = plasma concentration after oral administration (LCMS); assay type: in vivo, SCID mice; conditions: 24 hour after single oral 50 mg/kg; mice with MV4-11 tumor xenografts
Procedure: (§3) The mice carrying the established MV4-11 tumor xenografts (tumor volume around 150 mm^3) were given an oral dose of 50 mg/kg NTW-3456. At 0, 1, 2, 8, 16, 24 hours after dosing, three were euthanized. The blood samples were collected and plasma was prepared with centrifuge for LCMS assay. And the tumors were harvested, homogenized in lysis buffer, immunoprecipitated with anti-FLT3 antibody FIG. 33.
(§4) The curve (solid dot) is the plot of plasma concentration-time profiles of NTW-3456 after oral administration of 50 mg/kg.

[6] = system: Pane-1 model of pancreatic carcinoma; assay: Panc-1 pancreatic carcinoma xenograft; assay type: in vivo; conditions: with or without Abraxane
Source text: FIGS. 48 and 49 depict the results of various concentrations of NTW-3456, with or without Abraxane on a Pane-1 model of pancreatic carcinoma.

[7] = system: human tumor cell lines of the cancer screening panel; assay: in vitro antiproliferation, NCI 60 cancer cell line panel (SRB); assay type: cell-based; conditions: 48 h
Procedure: NTW-3475 was also tested for its antiproliferative potential using cell lines from the NCI 60 cancer cell line panel.
The human tumor cell lines of the cancer screening panel are grown in RPMI 1640 medium containing 5% fetal bovine serum and 2 mM L-glutamine. For a typical screening experiment, cells are inoculated into 96 well microtiter plates in 100 μL at plating densities ranging from 5,000 to 40,000 cells/well depending on the doubling time of individual cell lines. After cell inoculation, the microtiter plates are incubated at 37° C., 5% CO2, 95% air and 100% relative humidity for 24 h prior to addition of experimental drugs. […]
Following drug addition, the plates are incubated for an additional 48 h at 37° C., 5% CO2, 95% air, and 100% relative humidity. […] Bound stain is subsequently solubilized with 10 mM trizma base, and the absorbance is read on an automated plate reader at a wavelength of 515 nm. […] Using the seven absorbance measurements [time zero, (Tz), control growth, (C), and test growth in the presence of drug at the five concentration levels (Ti)], the percentage growth is calculated at each of the drug concentrations levels. Percentage growth inhibition is calculated as: [(Ti-Tz)/(C-Tz)]×100 for concentrations for which Ti>/=Tz [(Ti-Tz)/Tz]×100 for concentrations for which Ti<Tz.
Three dose response parameters are calculated for each experimental agent. […]

abl T315I mutant = abl T315I mutant (Homo sapiens, UniProt P00519, T315I); assay: kinase activity in abl mutants; assay type: biochemical
Source text: The first study was designed to assess the effect of NTW-3456 on kinase activity. Activity of NTW-3456 for a wide range of kinases and is shown FIGS. 22-24, including mutant kinases thought to play a large role in neoplastic transformation (FIGS. 23 and 24). In addition, NTW-3456 inhibited kinase activity in abl mutants for which no prior inhibitors have been FDA approved. In particular, NTW-3456 inhibits the 2 T315I mutant for which no kinase inhibitor had been known prior to NTW-3456.

[8] = system: human K562 chronic myelogenous leukemia (CML) xenograft; assay: K562 CML xenograft model; assay type: in vivo, SCID mice; conditions: various concentrations; scid mouse, K562 cells
Procedure: The objective of the second study was to evaluate antitumor activities of novel multiple-kinase inhibitor NTW-3475 in human K562 chronic myelogenous leukemia (CML) xenograft model in female SCID mice.
Four to six animals were randomly assigned to study groups. Each animal was weighed, and then injected subcutaneously in the left and right flank area with 0.1 ml of 8.0×10^7 K562 cells per mL.
as §1, with “was” for “was placed”, “treatment schedule.” for “of vehicle negative control or 25, 50 mg/kg of NTW-3475.”
FIGS. 34 and 35 depict the results of various concentrations of NTW-3456 on a scid mouse/xenograft model of CML using K562 cells.

[9] = system: FLT3 phosphorylation (pFLT3) of MV4-11 tumors; assay: FLT3 phosphorylation in MV4-11 tumor xenografts; assay type: in vivo, SCID mice; conditions: 24 hour after single oral 50 mg/kg
Procedure: as §3, §4

C/C=C/c1cc(Nc2cc(N3CCN(C)CC3)nc(Oc3cc(F)c4[nH]c(C)cc4c3F)n2)n[nH]1 [NTW-3456]
anti-tumor activity ([1]; various concentrations, single agent, nude mouse): some anti-tumor activity
anti-tumor activity ([1]; with or without Abraxane): significant anti-tumor activity, especially when used in combination with Abraxane
anti-tumor activity [2]: significant anti-tumor activity, especially at higher doses
anti-tumor activity [3]: significant anti-tumor activity, especially at higher doses
anti-tumor activity [4]: significant anti-tumor activity, especially at higher doses
plasma concentration [5]: 7 nM
anti-tumor activity [6]: significant anti-tumor activity, especially when used in combination with Abraxane
antiproliferative activity [7]: seen against AML, CML, thyroid, enodmetrial, gastric, breast, and some pancreatic carcinoma cell lines
inhibition of kinase activity (abl T315I mutant): inhibits
anti-tumor activity [8]: significant anti-tumor activity, especially at higher doses
inhibition of FLT3 phosphorylation of MV4-11 tumor [9]: more than 60%
